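All cell lines were grown in 96-well plates and treated with compound for 48 hours. GI50 is the concentration that inhibits growth by half.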 Activity calls are given as the source filed them. No stated cut-off is given here; in the data, active = GI50 up to about 1.1 µM and inactive = higher.
Legend:
Test in all cases: growth of human tumour cells (NCI), 48 h
[1] = tested on: CCRF-CEM
[2] = tested on: SK-MEL-2
[3] = tested on: U-251
[4] = tested on: ACHN
[5] = tested on: SNB-75
[6] = tested on: UACC-62
[7] = tested on: COLO 205
[8] = tested on: NCI/ADR-RES
[9] = tested on: OVCAR-8
[10] = tested on: A549
[11] = tested on: HCT-116
[12] = tested on: RPMI-8226
[13] = tested on: OVCAR-4
[14] = tested on: MDA-MB-435
[15] = tested on: LOX IMVI
[16] = tested on: CAKI-1
[17] = tested on: UO-31
[18] = tested on: KM12
[19] = tested on: HT-29
[20] = tested on: MCF7
[21] = tested on: PC-3
[22] = tested on: SN12C
[23] = tested on: OVCAR-3
[24] = tested on: OVCAR-5
[25] = tested on: HCC 2998
[26] = tested on: BT-549
[27] = tested on: M14
[28] = tested on: NCI-H522
[29] = tested on: DU-145
[30] = tested on: SK-OV-3
[31] = tested on: IGROV-1
[32] = tested on: MDA-N
[33] = tested on: SK-MEL-28
[34] = tested on: NCI-H226
[35] = tested on: MOLT-4
[36] = tested on: NCI-H460
[37] = tested on: SF-539
[38] = tested on: T47D
[39] = tested on: A498
[40] = tested on: Malme-3M
[41] = tested on: HCT-15
[42] = tested on: 786-0
[43] = tested on: HOP-62
[44] = tested on: RXF 393
[45] = tested on: HOP-92
[46] = tested on: SF-268
[47] = tested on: NCI-H23
[48] = tested on: UACC-257
[49] = tested on: TK-10
[50] = tested on: SF-295
[51] = tested on: Hs-578T
[52] = tested on: MDA-MB-231
[53] = tested on: K562
[54] = tested on: SK-MEL-5
[55] = tested on: EKVX
[56] = tested on: SNB-19
[57] = tested on: SW-620
[58] = tested on: HL-60
[59] = tested on: SR

## O=c1[nH]/c(=C/c2ccc3c(c2)OCO3)c(=O)[nH]/c1=C/c1ccc2c(c1)OCO2
[1]
  GI50: > 10 µM (inactive)
[2]
  GI50: > 10 µM (inactive)
[3]
  GI50: > 10 µM (inactive)
[4]
  GI50: > 10 µM (inactive)
[5]
  GI50: > 10 µM (inactive)
[6]
  GI50: > 10 µM (inactive)
[7]
  GI50: > 10 µM (inactive)
[8]
  GI50: > 10 µM (inactive)
[9]
  GI50: > 10 µM (inactive)
[10]
  GI50: > 10 µM (inactive)
[11]
  GI50: > 10 µM (inactive)
[12]
  GI50: > 10 µM (inactive)
[13]
  GI50: > 10 µM (inactive)
[14]
  GI50: > 10 µM (inactive)
[15]
  GI50: > 10 µM (inactive)
[16]
  GI50: > 10 µM (inactive)
[17]
  GI50: > 10 µM (inactive)
[18]
  GI50: > 10 µM (inactive)
[19]
  GI50: > 10 µM (inactive)
[20]
  GI50: > 10 µM (inactive)
[21]
  GI50: > 10 µM (inactive)
[22]
  GI50: > 10 µM (inactive)
[23]
  GI50: > 10 µM (inactive)
[24]
  GI50: > 10 µM (inactive)
[25]
  GI50: > 10 µM (inactive)
[26]
  GI50: > 10 µM (inactive)
[27]
  GI50: > 10 µM (inactive)
[28]
  GI50: > 10 µM (inactive)
[29]
  GI50: > 10 µM (inactive)
[30]
  GI50: > 10 µM (inactive)
[31]
  GI50: > 10 µM (inactive)
[32]
  GI50: > 10 µM (inactive)
[33]
  GI50: 8.89 µM (inactive)
[34]
  GI50: > 10 µM (inactive)
[35]
  GI50: > 10 µM (inactive)
[36]
  GI50: > 10 µM (inactive)
[37]
  GI50: > 10 µM (inactive)
[38]
  GI50: > 10 µM (inactive)
[39]
  GI50: > 10 µM (inactive)
[40]
  GI50: > 10 µM (inactive)
[41]
  GI50: > 10 µM
[42]
  GI50: > 10 µM (inactive)
[43]
  GI50: > 10 µM (inactive)
[44]
  GI50: > 10 µM (inactive)
[45]
  GI50: > 10 µM (inactive)
[46]
  GI50: > 10 µM (inactive)
[47]
  GI50: > 10 µM (inactive)
[48]
  GI50: > 10 µM (inactive)
[49]
  GI50: > 10 µM (inactive)
[50]
  GI50: > 10 µM (inactive)
[51]
  GI50: > 10 µM (inactive)
[52]
  GI50: > 10 µM (inactive)
[53]
  GI50: > 10 µM (inactive)
[54]
  GI50: > 10 µM (inactive)
[55]
  GI50: > 10 µM (inactive)
[56]
  GI50: > 10 µM (inactive)
[57]
  GI50: > 10 µM (inactive)

## CC(=O)Oc1ccc(C)c2c1[C@H]1CC[C@]3(C)[C@@H](OC(C)=O)CC[C@H]3[C@@H]1CC2
[1]
  GI50: 21.9 µM (inactive)
[58]
  GI50: 20.7 µM (inactive)
[3]
  GI50: 15.2 µM (inactive)
[4]
  GI50: 16.2 µM (inactive)
[5]
  GI50: 24.9 µM (inactive)
[6]
  GI50: 19.9 µM (inactive)
[8]
  GI50: 18.2 µM (inactive)
[9]
  GI50: 22.4 µM (inactive)
[10]
  GI50: 20.5 µM (inactive)
[11]
  GI50: 17 µM (inactive)
[12]
  GI50: 19.4 µM (inactive)
[14]
  GI50: 17.9 µM (inactive)
[15]
  GI50: 17 µM (inactive)
[17]
  GI50: 39.3 µM (inactive)
[18]
  GI50: 18.6 µM (inactive)
[19]
  GI50: 17.1 µM (inactive)
[20]
  GI50: 23.6 µM (inactive)
[22]
  GI50: 18.8 µM (inactive)
[23]
  GI50: 18.2 µM (inactive)
[24]
  GI50: > 100 µM (inactive)
[25]
  GI50: 18 µM (inactive)
[26]
  GI50: 17.5 µM (inactive)
[27]
  GI50: 17.5 µM (inactive)
[28]
  GI50: 17.7 µM (inactive)
[29]
  GI50: 26.9 µM (inactive)
[31]
  GI50: 18.7 µM (inactive)
[32]
  GI50: 18.5 µM (inactive)
[33]
  GI50: 17.3 µM (inactive)
[34]
  GI50: 21.8 µM (inactive)
[35]
  GI50: 16 µM (inactive)
[36]
  GI50: 20 µM (inactive)
[37]
  GI50: 19.6 µM (inactive)
[38]
  GI50: 19.3 µM (inactive)
[39]
  GI50: 17.6 µM (inactive)
[40]
  GI50: 15.7 µM (inactive)
[41]
  GI50: 17.8 µM
[42]
  GI50: 21.3 µM (inactive)
[43]
  GI50: 18.1 µM (inactive)
[44]
  GI50: 19.1 µM (inactive)
[45]
  GI50: 16.9 µM (inactive)
[46]
  GI50: 26.7 µM (inactive)
[47]
  GI50: 16.8 µM (inactive)
[48]
  GI50: 17.9 µM (inactive)
[49]
  GI50: 26.5 µM (inactive)
[50]
  GI50: 23.9 µM (inactive)
[51]
  GI50: 23 µM (inactive)
[52]
  GI50: 18.2 µM (inactive)
[59]
  GI50: 34.1 µM (inactive)
[53]
  GI50: 23.4 µM (inactive)
[54]
  GI50: 19.5 µM (inactive)
[55]
  GI50: 15.5 µM (inactive)
[56]
  GI50: 17.9 µM (inactive)
[57]
  GI50: 18.9 µM (inactive)

## CCOC(=O)c1cc(C2CCN(Cc3ccccc3)C2=O)c(C(=O)/C=C(/C)N)[nH]1 (configuration not stated)
[2]
  GI50: > 100 µM (inactive)
[3]
  GI50: > 100 µM (inactive)
[4]
  GI50: > 100 µM (inactive)
[5]
  GI50: > 100 µM (inactive)
[6]
  GI50: > 100 µM (inactive)
[7]
  GI50: > 100 µM (inactive)
[8]
  GI50: 72.1 µM (inactive)
[9]
  GI50: 65.5 µM (inactive)
[10]
  GI50: 73.6 µM (inactive)
[11]
  GI50: 90.6 µM (inactive)
[12]
  GI50: > 100 µM (inactive)
[13]
  GI50: 72.9 µM (inactive)
[14]
  GI50: > 100 µM (inactive)
[16]
  GI50: > 100 µM (inactive)
[17]
  GI50: 91.2 µM (inactive)
[18]
  GI50: > 100 µM (inactive)
[19]
  GI50: > 100 µM (inactive)
[20]
  GI50: 96.6 µM (inactive)
[21]
  GI50: > 100 µM (inactive)
[23]
  GI50: 81.3 µM (inactive)
[24]
  GI50: > 100 µM (inactive)
[25]
  GI50: > 100 µM (inactive)
[26]
  GI50: > 100 µM (inactive)
[27]
  GI50: > 100 µM (inactive)
[28]
  GI50: 57.3 µM (inactive)
[29]
  GI50: > 100 µM (inactive)
[30]
  GI50: 70.5 µM (inactive)
[31]
  GI50: 67.5 µM (inactive)
[32]
  GI50: > 100 µM (inactive)
[33]
  GI50: > 100 µM (inactive)
[35]
  GI50: > 100 µM (inactive)
[36]
  GI50: 85.5 µM (inactive)
[38]
  GI50: > 100 µM (inactive)
[39]
  GI50: > 100 µM (inactive)
[40]
  GI50: > 100 µM (inactive)
[41]
  GI50: > 100 µM
[42]
  GI50: 55.6 µM (inactive)
[43]
  GI50: 30.5 µM (inactive)
[44]
  GI50: > 100 µM (inactive)
[45]
  GI50: 25.8 µM (inactive)
[46]
  GI50: > 100 µM (inactive)
[47]
  GI50: > 100 µM (inactive)
[48]
  GI50: > 100 µM (inactive)
[49]
  GI50: > 100 µM (inactive)
[50]
  GI50: 46.3 µM (inactive)
[51]
  GI50: 98.4 µM (inactive)
[52]
  GI50: > 100 µM (inactive)
[53]
  GI50: > 100 µM (inactive)
[54]
  GI50: > 100 µM (inactive)
[55]
  GI50: > 100 µM (inactive)
[56]
  GI50: > 100 µM (inactive)
[57]
  GI50: > 100 µM (inactive)

From ChEMBL document CHEMBL1201862, “PubChem BioAssay data set” (2004)
